Consider 20 molecules from article PMC3928365, “Species-Selective Killing of Bacteria by Antimicrobial Peptide-PNAs” (PLoS ONE, 2014).

Holding throughout (test): Antibiotic disc susceptibility testing (BSAC method)
Settings in all cases: antibiotic disks (Oxoid), amount per disc per antibiotic (5-30 μg)

In one assay the test system is B. subtilis. The class given is cell-based, Bacillus subtilis. Here is the method:
Strains were tested with twenty different antibiotic disks (Oxoid, UK) representing the major classes of antimicrobial compounds. Tests were done according to the standardized disc susceptibility testing method of the British Society for Antimicrobial Chemotherapy, [37]. The minimum inhibitory concentration (MIC) of the peptide-PNA conjugants were determined using a method modified from Hacek et al and Friedman et al: Peptide-PNA conjugants, obtained as lyophilized powder (Panagene, Korea), were dissolved in ddH20. MIC assays were performed in an ultra low-bind (Costar, UK) polystyrene 96-well plate format in a final volume of 150 µl MMLB. An extended gradient of peptide-PNA concentrations was created by combining five sets of twofold serial dilutions from four starting concentrations (10, 4.8, 3.2 […]); giving 55 final peptide-PNA concentrations which extended over five rows of the 96-well plate. All cultures were incubated at 35°C for 16 h without shaking or agitation. Each peptide-PNA MIC calculation was performed in triplicate, each replicate representing a different starting colony. Mixed-culture experiments were conducted as above with a 1×10^4 CFU/ml starting inoculum. […] Growth (OD550) was monitored every 5 mins, each experiment was performed in triplicate.

In a further assay the test system is E. coli. Format: cell-based, Escherichia coli. Here is the method:
(§1) Strains were tested with twenty different antibiotic disks (Oxoid, UK) representing the major classes of antimicrobial compounds. Tests were done according to the standardized disc susceptibility testing method of the British Society for Antimicrobial Chemotherapy, [37]. The minimum inhibitory concentration (MIC) of the peptide-PNA conjugants were determined using a method modified from Hacek et al and Friedman et al: Peptide-PNA conjugants, obtained as lyophilized powder (Panagene, Korea), were dissolved in ddH20. MIC assays were performed in an ultra low-bind (Costar, UK) polystyrene 96-well plate format in a final volume of 150 µl MMLB. An extended gradient of peptide-PNA concentrations was created by combining five sets of twofold serial dilutions from four starting concentrations (10, 4.8, 3.2 […]); giving 55 final peptide-PNA concentrations which extended over five rows of the 96-well plate. All cultures were incubated at 35°C for 16 h without shaking or agitation. Each peptide-PNA MIC calculation was performed in triplicate, each replicate representing a different starting colony. Mixed-culture experiments were conducted as above with a 1×10^4 CFU/ml starting inoculum. For growth curve analysis, 200 µl cultures were grown in a BioTek PowerWave HT spectrophotometer, under constant agitation at 37°C in a 96-well plate covered with a breathable film. Growth (OD550) was monitored every 5 mins, each experiment was performed in triplicate.

Another assay has as its system K. pneumoniae. The class given is cell-based, Klebsiella pneumoniae. As for the experimental part:
as §1

Another assay concerns S. Typhimurium. The class given is cell-based, Salmonella enterica serovar Typhimurium. Here is the method:
as §1

As to `CC1COc2c(N3CCN(C)CC3)c(F)cc3c(=O)c(C(=O)O)cn1c23` (stereo not shown) [Oflaxacin], the “Sensitive (S)/Resistant (R), B. subtilis” value in the assay with B. subtilis is on record as “S”. For the same molecule, the “Sensitive (S)/Resistant (R), E. coli” value with E. coli is “S”. Besides, the “Sensitive (S)/Resistant (R), K. pneumoniae” value (shortened to “Sensitive … K. pneumoniae”) in the assay on K. pneumoniae is reported as “S”. Besides, the “Sensitive (S)/Resistant (R), S. Typhimurium” value (shortened to “Sensitive … S. Typhimurium”) in the assay on S. Typhimurium is on record as “S”.
Take `CNC(C)C1CCC(N)C(OC2C(N)CC(N)C(OC3OCC(C)(O)C(NC)C3O)C2O)O1` (stereo not shown) [Gentamicin]: the “Sensitive (S)/Resistant (R), E. coli” value with E. coli is listed as “S”. Further, in the assay with K. pneumoniae, the “Sensitive … K. pneumoniae” value is “R”. Further, the “Sensitive … S. Typhimurium” value in the assay with S. Typhimurium was “S”.
For the molecule `COc1cccc(OC)c1C(=O)N[C@@H]1C(=O)N2[C@@H]1SC(C)(C)[C@@H]2C(=O)O` [Methicillin], the “Sensitive (S)/Resistant (R), E. coli” value with E. coli is listed as “S”. The “Sensitive … K. pneumoniae” value in the assay with K. pneumoniae is “R”. Moreover, the “Sensitive … S. Typhimurium” value in the assay with S. Typhimurium is given as “S”.
For the molecule `CCn1cc(C(=O)O)c(=O)c2ccc(C)nc21` [Nalidixic acid], the “Sensitive (S)/Resistant (R), E. coli” value in the assay on E. coli is “S”. Moreover, the “Sensitive … K. pneumoniae” value with K. pneumoniae is “S”. The “Sensitive … S. Typhimurium” value in the assay on S. Typhimurium was “S”.
Take `COc1cc(Cc2cnc(N)nc2N)cc(OC)c1OC` [Trimethoprim]: in the assay on E. coli, the “Sensitive (S)/Resistant (R), E. coli” value was “S”. Also, the “Sensitive … K. pneumoniae” value with K. pneumoniae is listed as “R”. Also, the “Sensitive … S. Typhimurium” value with S. Typhimurium is “S”.
Regarding `CCn1cc(C(=O)O)c(=O)c2cnc(N3CCNCC3)nc21` [Pipemidic acid], the “Sensitive (S)/Resistant (R), E. coli” value in the assay on E. coli is reported as “S”. Also, in the assay on K. pneumoniae, the “Sensitive … K. pneumoniae” value is on record as “S”. Besides, the “Sensitive … S. Typhimurium” value in the assay on S. Typhimurium is given as “S”.
Consider `CN[C@H](CC(C)C)C(=O)N[C@H]1C(=O)N[C@@H](CC(N)=O)C(=O)N[C@H]2C(=O)N[C@H]3C(=O)N[C@H](C(=O)N[C@H](C(=O)O)c4cc(O)cc(O)c4-c4cc3ccc4O)[C@H](O)c3ccc(c(Cl)c3)Oc3cc2cc(c3O[C@@H]2O[C@H](CO)[C@@H](O)[C@H](O)[C@H]2O[C@H]2C[C@](C)(N)[C@H](O)[C@H](C)O2)Oc2ccc(cc2Cl)[C@H]1O` [Vancomycin], for which the “Sensitive (S)/Resistant (R), E. coli” value with E. coli is listed as “R”. In the assay on K. pneumoniae, the “Sensitive … K. pneumoniae” value was “R”. In addition, the “Sensitive … S. Typhimurium” value in the assay with S. Typhimurium was “R”.
`CC[C@H]1OC(=O)[C@H](C)[C@@H](O[C@H]2C[C@@](C)(OC)[C@@H](O)[C@H](C)O2)[C@H](C)[C@@H](O[C@@H]2O[C@H](C)C[C@H](N(C)C)[C@H]2O)[C@](C)(O)C[C@@H](C)CN(C)[C@H](C)[C@@H](O)[C@]1(C)O` [Azithromycin]: the “Sensitive (S)/Resistant (R), E. coli” value with E. coli was “R”. For the same molecule, in the assay with K. pneumoniae, the “Sensitive … K. pneumoniae” value is given as “R”. In addition, the “Sensitive … S. Typhimurium” value in the assay with S. Typhimurium is “R”.
Take `[H]/N=C(/N)N[C@H]1[C@H](O)[C@@H](O)[C@H](O[C@@H]2O[C@@H](C)[C@](O)(C=O)[C@H]2O[C@@H]2O[C@@H](CO)[C@H](O)[C@@H](O)[C@@H]2NC)[C@@H](N/C(N)=N\[H])[C@@H]1O` [Streptomycin]: the “Sensitive (S)/Resistant (R), E. coli” value in the assay on E. coli was “R”. Also, the “Sensitive … K. pneumoniae” value in the assay with K. pneumoniae is given as “S”. The “Sensitive … S. Typhimurium” value with S. Typhimurium is “S”.
Take Neomycin: the “Sensitive (S)/Resistant (R), B. subtilis” value with B. subtilis is “S”. The “Sensitive (S)/Resistant (R), E. coli” value with E. coli is “S”. Also, in the assay with K. pneumoniae, the “Sensitive … K. pneumoniae” value is “S”. Also, the “Sensitive … S. Typhimurium” value in the assay with S. Typhimurium was “S”.
For `CC[C@H]1OC(=O)[C@H](C)[C@@H](O[C@H]2C[C@@](C)(OC)[C@@H](O)[C@H](C)O2)[C@H](C)[C@@H](O[C@@H]2O[C@H](C)C[C@H](N(C)C)[C@H]2O)[C@](C)(O)C[C@@H](C)C(=O)[C@H](C)[C@@H](O)[C@]1(C)O` [Erythromycin], the “Sensitive (S)/Resistant (R), E. coli” value in the assay on E. coli is given as “R”. The “Sensitive … K. pneumoniae” value with K. pneumoniae is given as “R”. In the assay on S. Typhimurium, the “Sensitive … S. Typhimurium” value is “R”.
As to `CCC[C@@H]1C[C@@H](C(=O)N[C@@H]([C@H]2O[C@H](SC)[C@H](O)[C@@H](O)[C@H]2O)[C@H](C)Cl)N(C)C1` [Clindamycin], the “Sensitive (S)/Resistant (R), E. coli” value in the assay with E. coli was “R”. Further, in the assay with K. pneumoniae, the “Sensitive … K. pneumoniae” value is on record as “R”. Moreover, in the assay on S. Typhimurium, the “Sensitive … S. Typhimurium” value is “R”.
Take `CO/N=C(\C(=O)N[C@@H]1C(=O)N2C(C(=O)O)=C(COC(C)=O)CS[C@H]12)c1csc(N)n1` [Cefotaxime]: in the assay on E. coli, the “Sensitive (S)/Resistant (R), E. coli” value is given as “S”. For the same molecule, the “Sensitive … K. pneumoniae” value in the assay with K. pneumoniae was “S”. Besides, the “Sensitive … S. Typhimurium” value with S. Typhimurium was “S”.
As to `CCC[C@@H]1C[C@@H](C(=O)N[C@@H]([C@H]2O[C@H](SC)[C@H](O)[C@@H](O)[C@H]2O)[C@@H](C)O)N(C)C1` [Lincomycin], the “Sensitive (S)/Resistant (R), E. coli” value in the assay on E. coli was “R”. In addition, the “Sensitive … K. pneumoniae” value with K. pneumoniae is listed as “R”. Moreover, in the assay on S. Typhimurium, the “Sensitive … S. Typhimurium” value was “R”.
As for `C[C@@H](O)[C@H]1C(=O)N2C(C(=O)O)=C(SCCN=CN)C[C@H]12` [Imipenem], in the assay with E. coli, the “Sensitive (S)/Resistant (R), E. coli” value was “S”. The “Sensitive … K. pneumoniae” value in the assay with K. pneumoniae is given as “S”. Moreover, in the assay with S. Typhimurium, the “Sensitive … S. Typhimurium” value is “S”.
For `CO/N=C(\C(=O)N[C@@H]1C(=O)N2C(C(=O)O)=C(COC(N)=O)CS[C@H]12)c1ccco1` [Cefuroxime], in the assay with E. coli, the “Sensitive (S)/Resistant (R), E. coli” value is “S”. In addition, in the assay on K. pneumoniae, the “Sensitive … K. pneumoniae” value is reported as “S”. Besides, the “Sensitive … S. Typhimurium” value in the assay on S. Typhimurium is recorded as “S”.
`CN1CCN(c2c(F)cc3c(=O)c(C(=O)O)cn(CCF)c3c2F)CC1` [Fleroxacin]: the “Sensitive (S)/Resistant (R), E. coli” value in the assay with E. coli is reported as “S”. The “Sensitive … K. pneumoniae” value in the assay with K. pneumoniae is “S”.
Consider `CC1=C(C(=O)O)N2C(=O)[C@@H](NC(=O)[C@H](N)c3ccccc3)[C@H]2SC1` [Cefalexin], for which, in the assay with E. coli, the “Sensitive (S)/Resistant (R), E. coli” value was “S”. Moreover, the “Sensitive … K. pneumoniae” value with K. pneumoniae is on record as “S”. For the same molecule, the “Sensitive … S. Typhimurium” value in the assay on S. Typhimurium was “S”.
Take `NCC[C@H](O)C(=O)N[C@@H]1C[C@H](N)[C@@H](O[C@H]2O[C@H](CN)[C@@H](O)[C@H](O)[C@H]2O)[C@H](O)[C@H]1O[C@H]1O[C@H](CO)[C@@H](O)[C@H](N)[C@H]1O` [Amikacin]: the “Sensitive (S)/Resistant (R), E. coli” value with E. coli is “S”. Also, the “Sensitive … K. pneumoniae” value in the assay on K. pneumoniae is on record as “S”. The “Sensitive … S. Typhimurium” value with S. Typhimurium was “S”.
Take `CC1(C)S[C@@H]2[C@H](NC(=O)[C@H](N)c3ccc(O)cc3)C(=O)N2[C@H]1C(=O)O` [Amoxicillin]: in the assay with E. coli, the “Sensitive (S)/Resistant (R), E. coli” value is listed as “S”. The “Sensitive … K. pneumoniae” value in the assay on K. pneumoniae was “R”. For the same molecule, in the assay with S. Typhimurium, the “Sensitive … S. Typhimurium” value is “S”.
